The source of these data is patent US20240180881A1, “METHODS FOR DECREASING RESISTANCE TO CHEMOTHERAPY” (National Institute of Immunology, priority 2022, published 2024).

Assay [1] deals with T1, RAD54 chromatin remodeling activity (Homo sapiens, UniProt Q92698).
T1 construct: GST RAD54 (1-747) (WT), GST BLM (1-1417) (WT), His RAD54 (1-747) (WT); made in house; host or cells: E. coli BL-21 DE3
T1 sequence (Q92698 1-747): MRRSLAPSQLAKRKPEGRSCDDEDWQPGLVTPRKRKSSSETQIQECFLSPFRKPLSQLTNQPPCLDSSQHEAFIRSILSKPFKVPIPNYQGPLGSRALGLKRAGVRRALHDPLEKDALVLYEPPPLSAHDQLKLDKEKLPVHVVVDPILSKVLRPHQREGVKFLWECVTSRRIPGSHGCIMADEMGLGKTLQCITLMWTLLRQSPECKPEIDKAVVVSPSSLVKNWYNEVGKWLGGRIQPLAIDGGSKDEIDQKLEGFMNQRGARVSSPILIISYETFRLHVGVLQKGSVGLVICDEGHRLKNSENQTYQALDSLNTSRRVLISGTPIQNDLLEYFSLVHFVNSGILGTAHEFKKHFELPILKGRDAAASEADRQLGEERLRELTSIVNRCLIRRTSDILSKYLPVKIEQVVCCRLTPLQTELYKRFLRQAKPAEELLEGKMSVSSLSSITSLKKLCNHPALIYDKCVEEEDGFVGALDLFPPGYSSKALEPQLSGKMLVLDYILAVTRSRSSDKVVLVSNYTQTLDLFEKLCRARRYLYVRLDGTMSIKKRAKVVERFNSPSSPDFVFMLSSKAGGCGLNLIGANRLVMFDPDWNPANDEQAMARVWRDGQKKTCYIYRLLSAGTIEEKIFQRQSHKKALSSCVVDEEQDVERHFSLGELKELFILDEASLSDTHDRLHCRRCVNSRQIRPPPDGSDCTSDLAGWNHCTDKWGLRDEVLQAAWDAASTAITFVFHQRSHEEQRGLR
The experiment in a line: Restriction enzyme accessibility (REA) assay on chromatinized G5E4 array. The assay is classed as biochemical. As to conditions: 10 μM compound, +ATP.
Description: (§1) The data is from three independent experiments.
as §1

Assay [2] concerns MRP2 in HCT116 WT IC60 CPTR cells. The experiment in a line: MRP2 activity, CDF accumulation. The assay is classed as cell-based. The note with it: combinatorial treatment with CPT. As to the method:
The cells were incubated with MRP2 substrate CDFD for 30 minutes at 37° C. The accumulation of florescent product CDF was determined as a measure of MRP2 activity (FIG. 12E). The data is from three independent experiments. Mean±S.D.

In assay [3] the test system is HCT116 CPT(R) cells stably expressing BLM (Delta 181-212) in BLM−/− background. The experiment in a line: Xenograft, cells expressing BLM (Delta 181-212). The assay is classed as in vivo, NSG mice. As to conditions: for tumour volume, chemosensitivity to camptothecin: CPT + compound. As for the experimental part:
Xenografts assays were carried out in NSG mice using HCT116 CPT(R) cells stably expressing BLM (Delta 181-212) in BLM−/− background. FIGS. 15A-15C show the tumour volumes post-injection of cells.
RNA (FIG. 15D) or protein (FIG. 15E) levels of the indicated MDR genes were determined by RT-qPCR or immunoblotting with the indicated antibodies.

The next assay deals with HT-29 OHP(R) cells. The assay can be described thus: Xenograft, HT-29 OHP(R). The assay is classed as in vivo, NSG mice. As to conditions: for tumour volume, chemoresistance: CPT + compound. As for the experimental part:
Xenografts assays were carried out in NSG mice using HT-29 OHP(R) cells.
RNA (FIG. 16D) or protein (FIG. 16E) levels of the indicated MDR genes were determined by RT-qPCR or immunoblotting with the indicated antibodies.

The subject of the next assay is HCT116 IC60 CPTR tumors. The experiment in a line: Xenograft model, camptothecin resistant cells. The note with it: for tumor growth: CPT 1.25 mg/kg + compound 5 mg/kg intraperitoneally every 3 days, compared to CPT alone; for apoptosis in tumors, TUNEL positivity: dual treatment with CPT; for cell proliferation in tumors, Ki67 and PCNA levels: dual treatment with CPT/1-OHP.

The test system of a further assay is CT26 cells. The assay can be described thus: Syngeneic or allogenic model, CT26. Format: in vivo, BALB/c mice. As to conditions: for tumour volume, chemoresistance: CPT + compound. As for the experimental part:
Xenografts assays were carried out in BALB/c mice using CT26 cells.
RNA (FIG. 17D) or protein (FIG. 17E) levels of the indicated MDR genes were determined by RT-qPCR or immunoblotting with the indicated antibodies.

The subject of another assay is HCT116 IC60 CPTR cells. The experiment in a line: Soft agar assay. Format: cell-based. The note with it: 100 nM compound along with 120 nM of CPT. As to the method: Concentrations of CPT used: 0.140 nM, 20 nM, 50 nM, 1000 nM. Concentration of 1-OHP: 0.14 μM, 2 μM, 4 μM, 6 μM, 8 μM. Concentrations of CDDP used: 0.140 μM, 2 μM, 5 μM, 10 μM. The percentage of viable cells were determined by MTT assays (FIG. 12A-12C). The data in FIG. 12A and FIG. 12C is from three independent experiments and the data in FIG. 12B is from nine independent experiments. […] The levels of MRP2, MRP3, MRP5, MXR were quantitated from three independent experiments. […] Specifically, HCT116 IC60 CPTR cells were transfected with the HR substrate for 72 hours and the levels of HR was determined (FIG. 6A). The data is from three independent experiments. […] The number of soft agar colonies in each condition were counted. The data is from three independent experiments.
3000 cells mixed with 0.4% agar and seeded on top of the 6-well plates pre-coated with 0.8% agar. The resistant cells were treated with 120 nM of CPT. Post-incubation cells were seeded. […] The colonies were then counted after 15 days after staining with 0.25% Crystal Violet.

In another assay the target is T2, His-RAD54 WT (Homo sapiens, UniProt Q92698).
T2 construct: made in house; host or cells: E. coli BL-21 DE3
T2 sequence (Q92698 1-747): T1 sequence (Q92698 1-747)
The experiment in a line: Octet Bio-Layer Interferometry (BLI) binding. As to conditions: His-RAD54 WT immobilized onto Ni-NTA-sensor, 25° C.; read-out: affinity constant (KD). As to the method:
The interactions between RAD54 and biotinylated BLM_peptide (181-212) as well as the various compounds were studied using Bio-layer interferometry (BLI) using the Octet K2 system (ForteBio Systems). Approximately, 250 μg of His-tagged RAD54 was immobilized onto a Ni-NTA chip for 600 s and the unbound protein was washed using 10 mM HEPES pH 7.5 buffer. […] Each of the reaction set was then used to check for their association with RAD54 captured on the sensor. The kinetics of the RAD54-BLM interaction was monitored for 180 s each for the association and the dissociation curves by dipping the sensors in a series of increasing concentrations of the BLM_peptide. 500 mM NaCl was used as the dissociation buffer. A control sensor with the immobilized RAD54 was used in parallel and was used to normalize the data. Washing in 350 mM EDTA regenerated the sensors for the next cycle of binding kinetics. The experiments were performed at 25° C. All the real-time data was analysed and KD values were determined using the Octet® Evaluation software using 1:1 fitting curves.
Background: In BLI a coated tip is dipped into the sample, and binding shifts an interference pattern.

Where [4] appears, read: without or with compound treatment.

Usually Kd stands for a measure of binding affinity in units of concentration. Turning to `CN1CCN(C2=Nc3ccccc3Oc3ccc(Cl)cc32)CC1.O=C(O)CCC(=O)O` [C17, Loxapine succinate], the “BLM (1-212) dependent enhancement of RAD54 chromatin remodeling, fraction uncut” value (shortened to “BLM … fraction uncut”) in assay [1] is “decrease the efficiency of BLM dependent enhancement of RAD54 chromatin remodeling activity”. Besides, the “MRP2 activity, accumulation of CDF” value in assay [2] was “decreased MRP2 activity”. In addition, the “tumour volume, chemosensitivity to camptothecin” value (“tumour volume, chemosensitivity” below) in assay [3] is given as “abrogates the functions”. Besides, the “RNA and protein levels of the MDR genes in tumours” value in assay [3] (setting [4]) is given as “unaffected”; in the assay with HT-29 OHP(R) cells (setting [4]) it was “decreased”; in the assay on CT26 cells (setting [4]), “decreased”. The “tumour volume, chemoresistance” value in the assay on HT-29 OHP(R) cells and in the assay on CT26 cells was “reverses chemoresistance” throughout. The tumor growth result with HCT116 IC60 CPTR tumors is given as “inhibited the tumor growth”. For the same compound, the “RNA and protein levels of multiple MDR genes (including MRP2) in tumors” value in the assay on HCT116 IC60 CPTR tumors (co-treated with CPT 1.25 mg/kg and compound 5 mg/kg, end point) is given as “very significantly decreased”. In the assay on HCT116 IC60 CPTR tumors, the “apoptosis in tumors, TUNEL positivity” value is “increased apoptosis”. Further, the “cell proliferation in tumors, Ki67 and PCNA levels” value (shortened to “cell proliferation in tumors”) in the assay with HCT116 IC60 CPTR tumors was “Decreased cell proliferation”. For the same compound, in the assay with HCT116 IC60 CPTR cells, the “number of soft agar colonies (anchorage independent growth)” value (from here on “number of soft agar colonies”) is “decreased anchorage independent cell growth”. In addition, the Kd at His-RAD54 WT worked out at 0.0803 µM.

As to `CC(=O)Nc1nnc(S(N)(=O)=O)s1` [C3, Acetazolamide], in assay [1], the “BLM … fraction uncut” value is given as “decrease the efficiency of BLM dependent enhancement of RAD54 chromatin remodeling activity”. The “MRP2 activity, accumulation of CDF” value in assay [2] is on record as “decreased MRP2 activity”. Further, the “tumour volume, chemosensitivity” value in assay [3] is on record as “abrogates the functions”. Moreover, the “tumour volume, chemoresistance” value with HT-29 OHP(R) cells is on record as “reverses chemoresistance”. Besides, in the assay on HCT116 IC60 CPTR tumors, the tumor growth entry was “inhibited the tumor growth”; the “apoptosis in tumors, TUNEL positivity” value is reported as “increased apoptosis”; the “cell proliferation in tumors” value was “Decreased cell proliferation”. Also, the “tumour volume, chemoresistance” value with CT26 cells is “reverses chemoresistance”. Further, in the assay with HCT116 IC60 CPTR cells, the “number of soft agar colonies” value is “decreased anchorage independent cell growth”. Also, the Kd on His-RAD54 WT was found to be 55.8 µM.

Take `OCCN(CCO)c1nc(N2CCCCC2)c2nc(N(CCO)CCO)nc(N3CCCCC3)c2n1` [C7, Dipyridamole]: the “BLM … fraction uncut” value in assay [1] is given as “decrease the efficiency of BLM dependent enhancement of RAD54 chromatin remodeling activity”. The “MRP2 activity, accumulation of CDF” value in assay [2] is “decreased MRP2 activity”. Further, the “tumour volume, chemosensitivity” value in assay [3] is “abrogates the functions”. In the assay on HT-29 OHP(R) cells, the “tumour volume, chemoresistance” value is given as “reverses chemoresistance”. Further, in the assay with HCT116 IC60 CPTR tumors, the tumor growth result is listed as “inhibited the tumor growth”; the “apoptosis in tumors, TUNEL positivity” value was “increased apoptosis”; the “cell proliferation in tumors” value is recorded as “Decreased cell proliferation”. Moreover, the “tumour volume, chemoresistance” value in the assay with CT26 cells was “reverses chemoresistance”. Also, the “number of soft agar colonies” value with HCT116 IC60 CPTR cells is recorded as “decreased anchorage independent cell growth”. At His-RAD54 WT, the Kd was 5.04 µM.
